Each structure is given as a SMILES string. Values after ≈ are worked out from the molar mass of the structure shown.

One may read the MIC as the lowest concentration found to suppress growth.

The test system of test [1] is P. aeruginosa IFO 3445. In words: Antibacterial Test 2: MIC, agar dilution method (aerobic MIC method). Type of test: cell-based. Conditions: Pseudomonas aeruginosa, IFO3445. Here is the method:
(§1) Then, tested were antibacterial activities of the typical compounds of the present invention against gram-positive and -negative bacteria other than Hp. MICs of the typical compounds of the present invention were determined in substantial accordance with agar dilution method (aerobic MIC method) based on standard method of the Japan Society Chemotherapy.
(§2) The respective test compound were dissolved in dimethyl sulfoxide (DMSO) and serially diluted twofold to prepare solutions of the compounds with concentration of 0.05-100 μg/ml. The solutions of the compounds were respectively added to sensitive-disk agar medium-N (manufactured by NISSUI SEIYAKU) to prepare agar plates for determination.
(§3) The below-mentioned strains freezingly conserved at -135° C. were thawed in a warm bath (40° C.), cultured in a sensitivity-determining bouillon at 37° C. for 18-20 hours, and then diluted with the above-mentioned medium to prepare about 1.0×10^6 CFU/ml of bacterial suspension.
(§4) Inoculation was made by 5 μl by multi-inoculator (manufactured by SAKUMA SEISAKUSHO). Culturing was made under the same conditions as those of the pre-culturing and the MIC (unit: μg/ml) was determined by observing whether the bacteria grew or not.
(In general: In agar dilution, organisms are placed on agar that contains the substance at set levels.)

The subject of test [2] is E. faecalis RIMD 3336001. The description is as above. The test is classed as cell-based. Conditions: Enterococcus faecalis, RIMD3336001. Here is the method:
as §1, §2, §3, §4

The test system of test [3] is B. subtilis PCI 219. Described as above. The test is classed as cell-based. Conditions: Bacillus subtilis, PCI219. The protocol:
as §1, §2, §3, §4

In test [4] the test system is M. luteus ATCC 9341. Described as above. Type of test: cell-based. Conditions: Micrococcus luteus, ATCC9341. Here is the method: as §1, §2, §3, §4
Test [5] relates to K. pneumoniae PCI 602. Described as above. To be noted: Klebsiella pneumoniae, PCI602. The test is classed as cell-based. The protocol:
as §1, §2, §3, §4

In test [6] the test system is E. coli NIHJ JC-2. Described as above. Type of test: cell-based. Conditions: Escherichia coli, NIHJJC2. The protocol:
as §1, §2, §3, §4

Test [7] concerns S. aureus FDA 209P. The test is described as above. Type of test: cell-based. To be noted: Staphylococcus aureus, FDA209P. Here is the method: as §1, §2, §3, §4
In test [8] the test system is Helicobacter pylori standard strain ATCC 43526 (NCTC 11916). In words: Antibacterial Test 1: MIC against Helicobacter pylori, agar plate dilution method (anaerobic MIC method). Type of test: cell-based. To be noted: 72 h, Hp ATCC 43526, agar plate dilution, 37° C., 3 days.
Test [9] relates to seven gram-positive or -negative strains. Description: Antibacterial Test 2: MIC against each of the seven strains. The test is classed as cell-based. To be noted: each of S. aureus, M. luteus, E. faecalis, B. subtilis, E. coli, K. pneumoniae, P. aeruginosa; read-out: MIC of each of the above-mentioned seven strains. The protocol: as §1, §2, §3, §4
Test [10] deals with peptic ulcer. Conditions: up to; cited from earlier work.

Consider `CN(C)c1ccc(CCSc2ccnc3ccccc23)cc1` [Compound 27, 4-[2-(4-Dimethylaminophenyl)ethylthio]quinoline], for which the minimal inhibitory concentration (MIC) in [1], in test [2], in test [3], in test [4], in test [5] and in test [6] was > 100 µg/mL each time. The MIC in test [7] came to 50 µg/mL (≈ 162 µM); in test [8], 0.1 µg/mL (≈ 0.324 µM).

`CSc1ccc2c(SCc3ccc(N(C)C)cc3)ccnc2c1` [Compound 31, 4-(4-Dimethylaminobenzylthio)-7-methylthioquinoline]: the MIC in [1], in test [2], in test [3], in test [4], in test [5] and in [6] was > 100 µg/mL each time. Further, the values for the MIC in test [7] and in test [8] were > 100 µg/mL and 0.1 µg/mL (≈ 0.294 µM), respectively.

With `CSc1ccc2c(SCc3ccc(N)cc3)ccnc2c1` [Compound 34, 4-(4-Aminobenzylthio)-7-methylthioquinoline], the MIC in [1], in test [2], in test [3], in test [4], in test [5] and in [6] was > 100 µg/mL each time. Further, the MIC in test [7] was > 100 µg/mL; in test [8], 0.2 µg/mL (≈ 0.64 µM).

Turning to `CC(C)(C)OC(=O)N1CCN(c2ccc(C(=O)CSc3ccnc4ccccc34)cc2)CC1` [Compound 49, 4-[2-[4-(4-tert-Butoxycarbonyl-1-piperazinyl)phenyl]-2-oxoethylthio]quinoline], the minimum inhibitory concentration (MIC) in [1], in test [2], in [3], in test [4], in test [5] and in [6] was > 100 µg/mL in each case. Moreover, the MIC in test [7] was > 100 µg/mL; in [8] it was 0.0008 µg/mL (≈ 0.00173 µM).

`CC(C)(C)OC(=O)N1CCC(Nc2ccc(C(=O)CSc3ccnc4ccccc34)cc2Br)C1` (stereo not drawn) [Compound 65, 4-[2-[3-Bromo-4-(1-tert-butoxycarbonyl-3-pyrrolidinylamino)phenyl]-2-oxoethylthio]quinoline]: the MIC in test [9] is > 100 µg/mL; in test [8] it was 0.0031 µg/mL (≈ 0.00571 µM).

`O=C(CSc1ccnc2ccccc12)c1ccc(N2CCN(C(=O)OCc3ccccc3)CC2)cc1` [Compound 78, 4-[2-[4-(4-Benzyloxycarbonyl-1-piperazinyl)phenyl)-2-oxoethylthio]quinoline]: the MIC in test [9] is > 100 µg/mL; in [8], 0.0031 µg/mL (≈ 0.00623 µM).

Take `CC(C)[C@H](NC(=O)OC(C)(C)C)C(=O)N1CCN(c2ccc(C(=O)CSc3ccnc4ccccc34)cc2)CC1` [Compound 79, 4-[2-[4-[4-(N-tert-Butoxycarbonylvalyl)-1-piperazinyl]-phenyl]-2-oxoethylthio]quinoline]: the MIC is > 100 µg/mL in [9] and 0.0016 µg/mL (≈ 0.00284 µM) in test [8].

For the compound `O=C(CSc1ccnc2ccccc12)c1ccc(N2CCN(C(=O)OCC(Cl)(Cl)Cl)CC2)cc1` [Compound 81, 4-[2-[4-[4-(2,2,2-Trichloroethoxycarbonyl)-1-piperazinyl]phenyl]-2-oxoethylthio]quinoline], the MIC was > 100 µg/mL in [9] and 0.0016 µg/mL (≈ 0.00297 µM) in test [8].

Take `CC1(C)S[C@@H]2[C@H](NC(=O)[C@H](N)c3ccc(O)cc3)C(=O)N2[C@H]1C(=O)O` [amoxicillin, reference compound]: the MIC in [1] was > 100 µg/mL; in [2], 0.2 µg/mL (≈ 0.547 µM); in [3], 0.2 µg/mL (≈ 0.547 µM); in test [4] it was ≤ 0.05 µg/mL; in test [5], 50 µg/mL (≈ 137 µM); in [6] it was 3.13 µg/mL (≈ 8.57 µM). The results for the MIC in test [7] and in test [8] were 0.1 µg/mL (≈ 0.274 µM) and 0.05 µg/mL (≈ 0.137 µM), respectively.

For the compound `CN/C(=N/CCSCc1nc[nH]c1C)NC#N` [cimetidine], the cure rate in test [10] is 80-90%.

As to `CC[C@H]1OC(=O)[C@H](C)[C@@H](O[C@H]2C[C@@](C)(OC)[C@@H](O)[C@H](C)O2)[C@H](C)[C@@H](O[C@@H]2O[C@H](C)C[C@H](N(C)C)[C@H]2O)[C@](C)(OC)C[C@@H](C)C(=O)[C@H](C)[C@@H](O)[C@]1(C)O` [clarithromycin, reference compound], the MIC in test [1] was > 100 µg/mL; in test [2] it was 0.39 µg/mL (≈ 0.521 µM); in test [3] it was 0.2 µg/mL (≈ 0.267 µM); in test [4], ≤ 0.05 µg/mL; in test [5], 6.25 µg/mL (≈ 8.36 µM); in test [6] it was 100 µg/mL (≈ 134 µM). For the same compound, the MIC in test [7] is 0.1 µg/mL (≈ 0.134 µM); in test [8] it was 0.025 µg/mL (≈ 0.0334 µM).

Turning to `Cc1c(OCC(F)(F)F)ccnc1C[S+]([O-])c1nc2ccccc2[nH]1` (stereo not drawn) [lansoprazole, reference compound], the MIC in test [1], in test [2], in test [3], in test [4], in [5] and in test [6] was > 100 µg/mL in each case. In addition, the MIC in [7] is > 100 µg/mL; in [8] it was 12.5 µg/mL (≈ 33.8 µM).

As to `COc1ccc2[nH]c([S+]([O-])Cc3ncc(C)c(OC)c3C)nc2c1` (stereo not drawn) [omeprazole], in test [10], the cure rate was 80-90%.

Values taken from patent US6057447A, “Quinoline sulfide derivatives” (Zenyaku Kogyo Kabushiki Kaisha, priority 1996, dated 2000).
